Measured values reported in ChEMBL document CHEMBL3739396, “5-Aryl-1-imino-1-oxo-[1,2,4]thiadiazines” (ACS Med Chem Lett, 2015).

Molecular target: Beta-secretase 1 (Homo sapiens, UniProt P56817)
Assay: Inhibition of human BACE1 in HEK293 cells expressing APP assessed as decrease in amyloid beta-40 level after 18 to 20 hrs
Assay type: cell-based

Chain of Beta-secretase 1 (P56817 whole entry): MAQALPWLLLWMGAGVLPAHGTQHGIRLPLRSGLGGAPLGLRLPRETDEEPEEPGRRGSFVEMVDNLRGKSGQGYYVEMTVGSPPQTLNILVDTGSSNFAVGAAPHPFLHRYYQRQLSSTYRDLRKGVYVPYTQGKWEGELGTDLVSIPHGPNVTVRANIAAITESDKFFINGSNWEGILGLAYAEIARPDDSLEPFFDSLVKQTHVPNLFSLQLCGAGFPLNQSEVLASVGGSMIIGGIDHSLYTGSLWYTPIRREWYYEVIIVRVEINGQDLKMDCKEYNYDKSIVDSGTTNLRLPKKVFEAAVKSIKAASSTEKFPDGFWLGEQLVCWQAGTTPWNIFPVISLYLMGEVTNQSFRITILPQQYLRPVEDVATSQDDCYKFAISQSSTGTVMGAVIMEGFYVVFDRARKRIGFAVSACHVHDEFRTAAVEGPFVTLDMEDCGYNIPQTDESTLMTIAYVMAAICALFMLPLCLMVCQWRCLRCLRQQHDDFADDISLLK

Row | Structure (SMILES) | IC50 [nM]
1 | C[C@@]1(c2cc(NC(=O)c3ccc(C#N)cn3)ccc2F)C[S@]2(=O)=NCCCCN2C(N)=N1 | 2
2 | C[C@@]1(c2cc(-c3cc(-c4ncc(Cl)cn4)no3)ccc2F)C[S@]2(=O)=NCCCCN2C(N)=N1 | 9.5
3 | C[C@@]1(c2cc(-c3cn(-c4ccc(C#N)cn4)nn3)ccc2F)C[S@]2(=O)=NCCCCN2C(N)=N1 | 9.5
